Measurements reported in ChEMBL document CHEMBL1201862, “PubChem BioAssay data set” (2004).
Active and inactive are the calls of the source.

Legend:
Caspase-3 = biological target: T1, Caspase-3 (Homo sapiens, UniProt P42574); format: functional;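 note: Dose-response selectivity test against caspase-3 for candidate inhibitors of sentrin-specific proteases (SENPs)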
T1 sequence (P42574 whole entry): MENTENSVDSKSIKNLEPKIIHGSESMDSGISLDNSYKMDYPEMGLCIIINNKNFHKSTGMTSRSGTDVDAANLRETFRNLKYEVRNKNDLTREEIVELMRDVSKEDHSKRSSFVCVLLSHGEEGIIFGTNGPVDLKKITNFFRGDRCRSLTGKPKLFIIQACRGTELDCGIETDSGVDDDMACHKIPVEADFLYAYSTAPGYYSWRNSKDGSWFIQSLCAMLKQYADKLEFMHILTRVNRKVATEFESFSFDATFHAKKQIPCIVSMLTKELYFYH

[1] = biological target: T2, Sentrin-specific protease 7 (Homo sapiens, UniProt Q9BQF6); format: functional;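 note: Luminescence-based dose-response confirmation of ultra-high-throughput screening hits, measuring inhibition of SENP7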
T2 sequence (Q9BQF6 whole entry): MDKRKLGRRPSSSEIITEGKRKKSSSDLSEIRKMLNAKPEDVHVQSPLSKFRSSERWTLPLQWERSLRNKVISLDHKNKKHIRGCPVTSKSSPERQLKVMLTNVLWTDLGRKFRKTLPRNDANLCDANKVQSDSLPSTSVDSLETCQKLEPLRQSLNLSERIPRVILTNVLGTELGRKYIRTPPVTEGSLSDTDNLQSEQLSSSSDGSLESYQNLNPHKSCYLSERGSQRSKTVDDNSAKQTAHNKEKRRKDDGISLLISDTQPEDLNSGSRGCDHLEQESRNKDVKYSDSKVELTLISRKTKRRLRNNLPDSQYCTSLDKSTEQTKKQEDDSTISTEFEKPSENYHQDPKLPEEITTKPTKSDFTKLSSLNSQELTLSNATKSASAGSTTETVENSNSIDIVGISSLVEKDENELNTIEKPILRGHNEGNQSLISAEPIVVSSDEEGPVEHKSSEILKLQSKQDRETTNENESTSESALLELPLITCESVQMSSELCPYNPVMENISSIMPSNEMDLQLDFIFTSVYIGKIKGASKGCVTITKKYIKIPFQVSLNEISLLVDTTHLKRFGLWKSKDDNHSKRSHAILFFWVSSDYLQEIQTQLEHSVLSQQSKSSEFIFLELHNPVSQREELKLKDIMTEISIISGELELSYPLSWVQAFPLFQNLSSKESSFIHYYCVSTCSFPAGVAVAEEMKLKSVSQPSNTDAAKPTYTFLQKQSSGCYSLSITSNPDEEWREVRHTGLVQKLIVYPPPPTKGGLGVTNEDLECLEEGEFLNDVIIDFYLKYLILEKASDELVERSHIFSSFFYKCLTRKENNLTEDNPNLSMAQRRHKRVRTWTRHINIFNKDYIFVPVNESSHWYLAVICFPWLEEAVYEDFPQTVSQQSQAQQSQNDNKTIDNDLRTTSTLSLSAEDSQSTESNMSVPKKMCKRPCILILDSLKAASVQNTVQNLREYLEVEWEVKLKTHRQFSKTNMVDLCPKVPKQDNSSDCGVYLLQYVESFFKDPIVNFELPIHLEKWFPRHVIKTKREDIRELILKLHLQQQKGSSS

[2] = biological target: T3, Sentrin-specific protease 6 (Homo sapiens, UniProt Q9GZR1); format: functional;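 note: Luminescence-based dose-response confirmatory assay of SENP6 inhibition, following up an ultra-high-throughput screen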
T3 sequence (Q9GZR1 whole entry): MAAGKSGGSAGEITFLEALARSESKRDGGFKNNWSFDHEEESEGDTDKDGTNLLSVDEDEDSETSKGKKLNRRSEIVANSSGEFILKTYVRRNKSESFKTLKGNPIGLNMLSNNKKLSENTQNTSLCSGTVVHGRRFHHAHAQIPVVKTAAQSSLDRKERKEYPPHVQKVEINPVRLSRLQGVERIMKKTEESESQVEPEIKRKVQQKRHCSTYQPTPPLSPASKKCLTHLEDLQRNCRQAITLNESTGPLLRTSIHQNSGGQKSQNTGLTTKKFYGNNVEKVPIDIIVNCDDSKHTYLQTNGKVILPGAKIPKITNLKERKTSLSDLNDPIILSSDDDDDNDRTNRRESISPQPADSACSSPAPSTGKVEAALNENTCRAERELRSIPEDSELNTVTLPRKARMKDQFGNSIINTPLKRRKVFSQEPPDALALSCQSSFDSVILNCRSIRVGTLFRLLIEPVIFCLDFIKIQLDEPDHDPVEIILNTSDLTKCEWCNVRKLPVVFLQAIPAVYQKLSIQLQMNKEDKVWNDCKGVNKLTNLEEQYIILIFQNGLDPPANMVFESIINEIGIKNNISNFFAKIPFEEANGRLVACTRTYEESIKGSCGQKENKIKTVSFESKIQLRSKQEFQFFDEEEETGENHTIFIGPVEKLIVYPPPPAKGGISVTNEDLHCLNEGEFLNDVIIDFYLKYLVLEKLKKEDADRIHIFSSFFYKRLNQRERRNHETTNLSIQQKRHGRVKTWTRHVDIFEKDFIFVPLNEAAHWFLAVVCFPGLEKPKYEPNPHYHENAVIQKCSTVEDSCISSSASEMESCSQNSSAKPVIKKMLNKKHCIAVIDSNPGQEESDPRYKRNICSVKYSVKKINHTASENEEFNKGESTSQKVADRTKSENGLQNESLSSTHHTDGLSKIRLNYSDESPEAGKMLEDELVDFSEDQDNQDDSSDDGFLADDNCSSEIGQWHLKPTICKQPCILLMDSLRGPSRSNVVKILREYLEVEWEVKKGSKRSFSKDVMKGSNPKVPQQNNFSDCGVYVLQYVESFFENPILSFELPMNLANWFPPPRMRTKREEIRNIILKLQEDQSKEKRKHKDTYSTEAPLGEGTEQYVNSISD

[3] = biological target: T4, Sentrin-specific protease 8 (Homo sapiens, UniProt Q96LD8); format: functional;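 note: luminescence read-out of SENP8 inhibition, dose-response confirmation following an ultra-high-throughput screen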
T4 sequence (Q96LD8 whole entry): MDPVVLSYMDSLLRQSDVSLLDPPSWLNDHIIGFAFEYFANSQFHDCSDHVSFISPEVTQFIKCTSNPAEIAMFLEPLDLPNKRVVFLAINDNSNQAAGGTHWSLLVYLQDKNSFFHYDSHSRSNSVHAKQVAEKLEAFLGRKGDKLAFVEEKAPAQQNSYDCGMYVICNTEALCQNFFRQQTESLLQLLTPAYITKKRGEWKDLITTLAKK

[4] = Shn3 3'UTR reporter inhibitors, dose response, cell-based, Clone20 osteoblasts, firefly luciferase, cherry-picked (AID 624132); format: functional;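 note: firefly luciferase luminescence from reporter carrying the Shn3 3'UTR in osteoblasts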
[5] = HepG2 cell cytotoxicity, dose response, cytotoxicity control for Shn3 inhibitor project, CellTiter-Glo, cherry-picked (AID 624134); format: functional, cell-based
[6] = control 3'UTR Renilla luciferase suppression, dose response, counter-screen for Shn3 inhibitor project, cell-based, Clone20-Shn3RL, cherry-picked (AID 624133); format: functional
[7] = A549 cell cytotoxicity, dose response, cytotoxicity control, plate reader, cherry-pick, antagonist series (AID 743412); format: functional, cell-based
[8] = HepG2 cell cytotoxicity, dose response, cytotoxicity control, plate reader, cherry-pick, antagonist series (AID 743416); format: functional, cell-based
[9] = LGR2 antagonists, dose response, cell-based, HEK293, CRE-luciferase reporter, cherry pick, set 2 (AID 743343); format: functional;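 note: transfected cells were stimulated with diluted bursicon conditioned medium after compound addition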
[10] = MC4R antagonists, dose response, counter-screen for LGR2 antagonist project, cell-based, plate reader, cherry pick (AID 743444); format: functional;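 note: transfected HEK 293 cells stimulated with alpha-MSH peptide; potency of inhibitors of the alpha-MSH evoked signal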
[11] = HEK293 cell cytotoxicity, dose response, cytotoxicity control, plate reader, cherry-picked samples (AID 743446); format: functional, cell-based
[12] = inhibitors of firefly luciferase expression or activity, dose response, H4 neuroglioma cells, luminescence (AID 1990); format: functional, cell-based
BJ [13] = test: cytotoxicity toward BJ-TERT fibroblasts, dose response, cell-based, RAS-independent, luminescence (AID 1933); format: functional; conditions: Homo sapiens
[14] = inhibitors of SNCA 5'UTR-driven reporter translation, confirmation, H4 neuroglioma cells, luminescence (AID 1988); format: functional, cell-based
BJ [15] = test: cells; format: functional, cell-based; conditions: Homo sapiens
BJ [16] = test: cytotoxicity toward BJ-TERT-LT-ST fibroblasts, dose response, cell-based, RAS-independent, luminescence (AID 1935); format: functional; conditions: Homo sapiens;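 note: BJ fibroblasts immortalized with TERT plus LT and ST oncogenes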
[17] = cytotoxicity toward DRD oncogenic fibroblasts, dose response, cell-based, non-viral oncogenic, luminescence (AID 1934); format: functional; conditions: Homo sapiens
BJ [18] = test: cytotoxicity toward Ras-transformed BJeLR fibroblasts, dose response, cell-based, alamar blue fluorescence, cherrypicked samples (AID 2631); format: functional; conditions: Homo sapiens;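 note: confirmatory dose-response assay in RAS-dependent BJ fibroblasts engineered with TERT, LT and ST, with cytotoxicity read by fluorescence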
[19] = tested on: Streptococcus sp. 'group A'; test: growth inhibition of control SK(-) GAS strain, dose response, counter-screen for streptokinase expression inhibitor project, luminescence, kanamycin, BacTiterGlo, confirmation (AID 1900); format: functional, organism-based
Streptokinase A = biological target: T5, Streptokinase A (Streptococcus pyogenes serotype M1, UniProt P10520); test: S. pyogenes streptokinase expression inhibitors, potency, dose response, plasminogen activation absorbance, OD405 (AID 1914); format: functional, Streptococcus pyogenes M1 GAS;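 note: secreted streptokinase activity via plasminogen activation per viability signal from cell pellet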
T5 sequence (P10520 whole entry): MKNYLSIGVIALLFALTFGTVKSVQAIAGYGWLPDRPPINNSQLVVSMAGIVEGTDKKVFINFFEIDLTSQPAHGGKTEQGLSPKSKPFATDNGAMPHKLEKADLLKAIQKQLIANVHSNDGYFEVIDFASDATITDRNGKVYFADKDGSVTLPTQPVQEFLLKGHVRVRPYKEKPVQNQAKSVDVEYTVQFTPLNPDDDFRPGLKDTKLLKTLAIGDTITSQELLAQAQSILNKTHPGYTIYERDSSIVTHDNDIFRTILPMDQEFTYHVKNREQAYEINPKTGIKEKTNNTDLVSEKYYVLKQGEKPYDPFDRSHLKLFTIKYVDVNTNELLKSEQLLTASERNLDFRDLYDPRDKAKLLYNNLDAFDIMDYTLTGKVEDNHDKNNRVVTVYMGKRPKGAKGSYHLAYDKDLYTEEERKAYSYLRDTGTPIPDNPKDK

Streptococcus = test: Group A Streptococcus viability loss, dose response, counter-screen for streptokinase expression inhibitor project, luminescence, BacTiterGlo (AID 1915); format: functional, organism-based;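 note: potency for reduction of bacterial viability or growth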
[20] = Luminescence Cell-Based Dose Response HTS to Identify Inhibitors of 5'UTR Stem-Loop Driven Prion Protein mRNA Translation in H4 Neuroglioblastoma Cells. [Related pubchem assays: 1827 (Project Summary), 1813 (Primary HTS)]; format: functional
[21] = inhibitors of clade B AD8 Env fusion, dose response, cell-based, cherry-pick (AID 652062); format: functional;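 note: luciferase signal from cell-cell fusion driven by HIV-1 clade B AD8 Env; potency is for inhibitors of fusion seen as a drop in luminescence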

SMILES	IC50 (Caspase-3)	IC50 [1]	IC50 [2]	IC50 [3]	AC50 [4]	AC50 [5]	AC50 [6]	also measured
Cc1cccc(-n2ncc3c(N4CCC(C)CC4)ncnc32)c1	19.5 µM (active)	7.97 µM (active)	21.9 µM (active)	27.9 µM (active)				
Oc1nc2ccccc2n1C1CCN(C(c2cccs2)c2nnnn2Cc2ccccc2)CC1 (stereo not given)					2.98 µM (active)	> 70 µM (inactive)	6.11 µM (active)	AC50 [7]: 13.7 µM (active); AC50 [8]: 44.4 µM (active); AC50 [9]: 2.74 µM (active); AC50 [10]: 1.76 µM (active); AC50 [11]: 29.8 µM (active)
CC(=O)c1ccccc1OCCOCCOCCOc1ccccc1C(C)=O								EC50 [12]: > 120 µM (not active); EC50 (BJ [13]): 27 µM (active); EC50 [14]: > 120 µM (not active); EC50 (BJ [15]): > 150 µM (not active); EC50 (BJ [16]): > 150 µM (inconclusive); EC50 [17]: > 150 µM (not active); EC50 (BJ [18]): > 133 µM (inactive)
O=C(CSc1ccccn1)NCc1ccc2c(c1)OCO2								EC50 (BJ [18]): > 133 µM (inactive)
COc1ccc(-c2nc(NC(=O)C3CC(=O)N(c4ccc5c(c4)OCCO5)C3)sc2C)cc1 (stereo not given)					5.24 µM (active)	47.3 µM (active)	13.4 µM (active)	EC50 [19]: 21.7 µM (active); EC50 (Streptokinase A): > 150 µM (not active); EC50 (Streptococcus): 63.6 µM (active)
COc1cccc(C(=O)Oc2ccc(/C=N/Nc3ccc(C(=O)O)cc3)cc2OC)c1	74.2 µM (active)	12.3 µM (active)	14.3 µM (active)	17.1 µM (active)				EC50 [19]: 5 µM (active); EC50 (Streptokinase A): > 150 µM (not active); EC50 (Streptococcus): 19 µM (active)
CCOc1ccc(CC(=O)Nc2ccc(NC(=O)c3ccco3)cc2)cc1OCC								EC50 [12]: 11 µM (active); EC50 (BJ [13]): > 150 µM (not active); EC50 [20]: 6.05 µM (active); EC50 [14]: 8.44 µM (active); EC50 (BJ [15]): 2.55 µM (active); EC50 (BJ [16]): 9.89 µM (inconclusive); EC50 [17]: > 150 µM (not active); EC50 (BJ [18]): > 66.7 µM (inactive)
C/C(=N\Nc1ccc([N+](=O)[O-])cc1)c1ccco1	18.4 µM (active)	6.51 µM (active)	10.6 µM (active)	73.8 µM (active)				
C/C(=N\OC(=O)c1ccc(Br)cc1)c1ccccn1	1.26 µM (active)	1.01 µM (active)	1.31 µM (active)	2.43 µM (active)				
CC1CN(S(=O)(=O)c2cc(C(=O)NCCC3=CCCCC3)ccc2Cl)CC(C)O1 (stereo not given)								AC50 [21]: 7.96 µM (active)
N#Cc1ccsc1NC(=O)CSc1nnnn1-c1ccc(O)cc1	20.6 µM (active)	10.3 µM (active)	30.5 µM (active)	36.8 µM (active)				
CCN(C(=O)C1CCN(c2nc(-c3ccc(OC)cc3)no2)CC1)c1ccc(OC)cc1					3.17 µM (active)	62.5 µM (active)	11.8 µM (active)	
COc1ccc(NC(=O)CSc2ncccc2C(=O)OC(C)C)cc1OC					4.1 µM (active)	41.9 µM (active)	1.54 µM (active)	
